Test results taken from US10487093B2, “Heterocyclic compounds, in particular 2-oxo-4,4,5,5,6,6,7,7-octahydrobenzoxazole derivatives, and their use as antibacterial compounds” (priority 2016, dated 2019).
≈ marks a conversion by molar mass, not a printed value.

Assays:
[1] = system: Escherichia coli ATCC 25922; test: MIC, broth microdilution (CLSI) versus planktonic bacteria; assay type: cell-based; conditions: ATCC25922; Escherichia coli ATCC 25922; 16-20 h; mode of three independent experiments; read-out: MIC, Ec ATCC 25922
[2] = system: Acinetobacter baumannii ATCC 19606; test: as above; assay type: cell-based; conditions: ATCC19606; Acinetobacter baumannii ATCC 19606; 16-20 h; mode of three independent experiments; read-out: MIC, Ab ATCC 19606
[3] = system: Haemophilus influenzae ATCC 49247; test: as above; assay type: cell-based; conditions: ATCC49247; Haemophilus influenzae ATCC 49247; 16-20 h; mode of three independent experiments; read-out: MIC, Hi ATCC 49247
E. coli ATCC BAA-2452 = test: as above; assay type: cell-based; conditions: Escherichia coli ATCC BAA-2452; 16-20 h; mode of three independent experiments; read-out: MIC, Ec ATCC BAA 2452
[4] = system: Staphylococcus aureus ATCC 29213; test: as above; assay type: cell-based; conditions: ATCC29213; Staphylococcus aureus ATCC 29213; 16-20 h; mode of three independent experiments; read-out: MIC, Sa ATCC 29213
[5] = system: Enterococcus faecalis ATCC 29212; test: as above; assay type: cell-based; conditions: ATCC29212, 16-20 h, mode of three independent experiments, read-out: MIC, Ef ATCC 29212
[6] = system: human hepatic cell line (HepG2 ATCC HB-8065); test: Human cell viability assay (CellTiter-Glo); conditions: Homo sapiens, HepG2, 24 h, read-out: IC50 (μg/mL) HepG2
E. coli MG1655 = test: MIC, broth microdilution (CLSI) versus planktonic bacteria; assay type: cell-based, Escherichia coli; conditions: Escherichia coli, MG1655, read-out: MIC, Ec MG1655 WT
[7] = system: Enterococcus faecium ATCC 19434; test: as above; assay type: cell-based; conditions: ATCC19434, 16-20 h, mode of three independent experiments, read-out: MIC, Efm ATCC 19434
E. coli MG1655 D87G = assay type: cell-based, Escherichia coli; conditions: compared to the isogenic parent strain E. coli MG1655; D87G mutation on DNA gyrase subunit GyrA
E. coli NCTC 13476 = test: MIC, broth microdilution (CLSI) versus planktonic bacteria; assay type: cell-based; conditions: NCTC13476; Escherichia coli NCTC 13476; 16-20 h; mode of three independent experiments; read-out: MIC, Ec NCTC 13476
[8] = system: Pseudomonas aeruginosa ATCC 27853; test: as above; assay type: cell-based; conditions: ATCC27853; Pseudomonas aeruginosa ATCC 27853; 16-20 h; mode of three independent experiments; read-out: MIC, Pa ATCC 27853
[9] = system: Acinetobacter baumannii NCTC 13420; test: as above; assay type: cell-based; conditions: NCTC13420; Acinetobacter baumannii NCTC 13420; 16-20 h; mode of three independent experiments; read-out: MIC, Ab NCTC 13420
[10] = system: Streptococcus pneumoniae ATCC 49619; test: as above; assay type: cell-based; conditions: ATCC49619; Streptococcus pneumoniae ATCC 49619; 16-20 h; mode of three independent experiments; read-out: MIC, Sp ATCC 49619
[11] = system: Enterobacter cloacae NCTC 13406; test: as above; assay type: cell-based; conditions: NCTC13406; Enterobacter cloacae NCTC 13406; 16-20 h; mode of three independent experiments; read-out: MIC, Ecl NCTC 13406
[12] = system: fluoroquinolone-resistant Enterococcus faecium ATCC 700221; test: as above; assay type: cell-based; conditions: ATCC700221, 16-20 h, mode of three independent experiments, read-out: MIC, Efm ATCC 700221
E. coli MG1655 S83L = assay type: cell-based, Escherichia coli; conditions: compared to the isogenic parent strain E. coli MG1655; S83L mutation on DNA gyrase subunit GyrA

Row | SMILES | MIC [1] [µg/mL] | MIC [2] [µg/mL] | MIC [3] [µg/mL] | MIC (E. coli ATCC BAA-2452) [µg/mL] | MIC [4] [µg/mL] | MIC [5] [µg/mL] | IC50 [6] [µg/mL] | MIC (E. coli MG1655) [µg/mL] | MIC [7] [µg/mL] | Fold increase in MIC, E. coli MG1655 D87G (E. coli MG1655 D87G) [fold] | MIC (E. coli NCTC 13476) [µg/mL] | MIC [8] [µg/mL] | MIC [9] [µg/mL] | MIC [10] [µg/mL] | MIC [11] [µg/mL] | MIC [12] [µg/mL] | Fold increase in MIC, E. coli MG1655 S83L (E. coli MG1655 S83L) [fold]
1 | COc1ccc2ncc(=O)n(CCNC3CCC4C(C3)OC(=O)N4c3ccc4c(n3)NC(=O)CO4)c2n1 (stereo in doubt) [Compound 43, (3aR,6R,7aR)-6-[(2-{6-methoxy-3-oxo-3H,4H-pyrido[2,3-b]pyrazin-4-yl}ethyl)amino]-3-{3-oxo-2H,3H,4H-pyrido[3,2-b][1,4]oxazin-6-yl}-octahydro-1,3-benzoxazol-2-one] | < 1 | < 1 | < 1 | < 1 | < 1 | < 1 | > 100 | < 1 | < 1 | 0.5 | < 1 | < 1 | < 1 | < 1 | < 1 | < 1 | 1
2 | COc1ccc2ccc(=O)n(CCN[C@H]3CC[C@H]4[C@H](C3)OC(=O)N4c3ccc4c(n3)NC(=O)CO4)c2n1 [Compound 29, 1-(2-{[(3aS,6S,7aS)-2-oxo-3-{3-oxo-2H,3H,4H-pyrido[3,2-b][1,4]oxazin-6-yl}-octahydro-1,3-benzoxazol-6-yl]amino}ethyl)-7-methoxy-1,2-dihydro-1,8-naphthyridin-2-one] | < 1 | < 1 | < 1 | < 1 | < 1 | < 1 | 10 to 100 (≈ 19.7 to 197 µM) | < 1 | < 1 | 2 | – | < 1 | < 1 | < 1 | < 1 | < 1 | 1
3 | O=C1COc2ccc(N3C(=O)O[C@H]4C[C@@H](NCCn5c(=O)cnc6cc(F)c(F)cc65)CC[C@@H]43)nc2N1 [Compound 34, 1-(2-{[(3aS,6S,7aS)-2-oxo-3-{3-oxo-2H,3H,4H-pyrido[3,2-b][1,4]oxazin-6-yl}-octahydro-1,3-benzoxazol-6-yl]amino}ethyl)-6,7-difluoro-1,2-dihydroquinoxalin-2-one] | < 1 | < 1 | < 1 | < 1 | < 1 | < 1 | – | < 1 | < 1 | 2 | < 1 | 1 to 10 (≈ 1.95 to 19.5 µM) | < 1 | < 1 | < 1 | < 1 | 1
4 | N#Cc1cccc(-c2cccc(CN[C@@H]3CC[C@@H]4[C@@H](C3)OC(=O)N4c3ccc4c(n3)NC(=O)CO4)c2O)n1 [Compound 40, 6-[3-({[(3aR,6R,7aR)-2-oxo-3-{3-oxo-2H,3H,4H-pyrido[3,2-b][1,4]oxazin-6-yl}-octahydro-1,3-benzoxazol-6-yl]amino}methyl)-2-hydroxyphenyl]pyridine-2-carbonitrile] | < 1 | < 1 | < 1 | < 1 | < 1 | < 1 | 10 to 100 (≈ 19.5 to 195 µM) | < 1 | < 1 | 1 | < 1 | < 1 | < 1 | 1 to 10 (≈ 1.95 to 19.5 µM) | < 1 | < 1 | 1
